From patent publication US11000033B2, “Ketone or oxime compound, and herbicide” (NISSAN CHEMICAL CORPORATION, priority 2014, dated 2021)

Tests used:
Assay type in all cases: in vivo
Scirpus juncoides = assay: Test Example 2: herbicidal activity, application during weed generation in submerged conditions (symbol B); conditions: Table 23; application herbicide amount 320 g/ha; grade 0-5 by criteria of Test Example 1
Outline: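 Read-out: herbicidal effect on each species rated on a visual scale 3 weeks after treatment. Plants were raised together from seed in flooded alluvial soil (4 cm water) at 25° C. to 30° C. and treated at one to two leaves by water-surface application of diluted emulsion.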

[1] = tested on: Echinochloa crus-galli var. crus-galli; assay: Test Example 3: herbicidal effect by foliage application, Wagner pot (symbol H); conditions: application herbicide amount 320 g/ha
Outline: (§1)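 Scoring took place 3 weeks after application, using fixed criteria. Plants had been raised from seed for 14 days at 25 to 30 °C in submerged alluvial soil before a diluted emulsion of the test compound was sprayed uniformly on the leaves.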

Cyperus difformis = assay: Test Example 3: herbicidal effect by foliage application, Wagner pot (symbol E); conditions: application herbicide amount 320 g/ha
Outline: as §1

[2] = tested on: Echinochloa crus-galli var. crus-galli; assay: Test Example 4: herbicidal effect by soil treatment (symbol H)
Outline: (§2)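 Seeds were sown in sterilized diluvial soil, covered with about 1.5 cm of soil, and the soil surface was sprayed with a water-diluted emulsion of the compound at a predetermined rate. Plants grew in a greenhouse at 25° C. to 30° C.; effects were scored visually 3 weeks after application.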

Lolium multiflorum Lam. [3] = assay: Test Example 4: herbicidal effect by soil treatment (symbol K)
Outline: as §2

Apera spica-venti = assay: Test Example 4: herbicidal effect by soil treatment (symbol L)
Outline: as §2

Galium spurium = assay: Test Example 4: herbicidal effect by soil treatment (symbol Q)
Outline: as §2

corn = assay: Test Example 4: effect on crop by soil treatment (symbol c); conditions: for c: corn, effect on crop grade: application herbicide amount 320 g/ha
Outline: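 Steps: fill box with sterilized diluvial soil; sow seed spot-like; cover with ~1.5 cm soil; grow in greenhouse (25° C. to 30° C.).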

rice = assay: Test Example 4: effect on crop by soil treatment (symbol b); conditions: for b: directly sowed rice plant, effect on crop grade: application herbicide amount 320 g/ha
Outline: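 Seeds were sown in spots on sterilized diluvial soil in a plastic box and covered with about 1.5 cm of soil. Plants were then grown in a greenhouse at 25° C. to 30° C.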

Setaria viridis = assay: Test Example 5: herbicidal effect by foliage application, plastic box (symbol G); conditions: 320 g/ha, 3 weeks after application
Outline: (§3)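 After sowing into sterilized diluvial soil and growing two weeks under glass at 25° C. to 30° C., seedlings receive a uniform foliar spray of diluted emulsion. Damage is judged visually three weeks on.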

Avena fatua = assay: Test Example 5: herbicidal effect by foliage application, plastic box (symbol I); conditions: 320 g/ha, 3 weeks after application
Outline: as §3

Alopecurus myosuroides = assay: Test Example 5: herbicidal effect by foliage application, plastic box (symbol J); conditions: 320 g/ha, 3 weeks after application
Outline: as §3

Lolium multiflorum Lam. [4] = assay: Test Example 5: herbicidal effect by foliage application, plastic box (symbol K); conditions: 320 g/ha, 3 weeks after application
Outline: as §3

Stellaria media = assay: Test Example 5: herbicidal effect by foliage application, plastic box (symbol P); conditions: 320 g/ha, 3 weeks after application
Outline: as §3

Veronica persica = assay: Test Example 5: herbicidal effect by foliage application, plastic box (symbol R); conditions: 320 g/ha, 3 weeks after application
Outline: as §3

rice plant = assay: Test Example 5: effect on crop by foliage application, plastic box (symbol b); conditions: 320 g/ha, 3 weeks after application
Outline: (§4)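 Greenhouse culture at 25° C. to 30° C. followed spot-like sowing into sterilized diluvial soil, with seed covered by roughly 1.5 cm of soil.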

wheat = assay: Test Example 5: effect on crop by foliage application, plastic box (symbol e); conditions: 320 g/ha, 3 weeks after application
Outline: as §4

[5] = application herbicide amount 320 g/ha

Structure (SMILES): CC(=O)C(C(C)=O)C1CC(O)=C(c2c(C)cc(C)cc2C)C1=O (centres unmarked) [2-002]
- Herbicidal effect grade, B: Scirpus juncoides (Scirpus juncoides): 0 (Herbicidal ratio of 5% or lower (almost no effect))
- herbicidal effect on H (Echinochloa crus-galli var. crus-galli), grade 0-5 [1]: 0 (Herbicidal ratio of 5% or lower (almost no effect))
- herbicidal effect on E, grade 0-5 (Cyperus difformis): 0 (Herbicidal ratio of 5% or lower (almost no effect))
- H: Echinochloa crus-galli var. crus-galli, herbicidal effect grade ([2]; 320 g/ha): 0 (Herbicidal ratio of 5% or lower (almost no effect))
- K: Lolium multiflorum Lam., herbicidal effect grade (Lolium multiflorum Lam. [3]; 320 g/ha): 0 (Herbicidal ratio of 5% or lower (almost no effect))
- L: Apera spica-venti, herbicidal effect grade (Apera spica-venti; 320 g/ha): 0 (Herbicidal ratio of 5% or lower (almost no effect))
- Q: Galium spurium, herbicidal effect grade (Galium spurium; 320 g/ha): 0 (Herbicidal ratio of 5% or lower (almost no effect))
- c: corn, effect grade on crop (corn; 320 g/ha): 0 (Herbicidal ratio of 5% or lower (almost no effect))
- b: directly sowed rice plant, effect grade on crop (rice; 320 g/ha): 1 (Herbicidal ratio of 5% or higher and lower than 20%)
- G: Setaria viridis, herbicidal effect grade (Setaria viridis): 4 (Herbicidal ratio of 70% or higher and lower than 90%)
- I: Avena fatua, herbicidal effect grade (Avena fatua): 1 (Herbicidal ratio of 5% or higher and lower than 20%)
- J: Alopecurus myosuroides, herbicidal effect grade (Alopecurus myosuroides): 4 (Herbicidal ratio of 70% or higher and lower than 90%)
- K: Lolium multiflorum Lam., herbicidal effect grade (Lolium multiflorum Lam. [4]): 5 (Herbicidal ratio of 90% or more (almost completely withered))
- P: Stellaria media, herbicidal effect grade (Stellaria media): 2 (Herbicidal ratio of 20% or higher and lower than 40%)
- R: Veronica persica, herbicidal effect grade (Veronica persica): 1 (Herbicidal ratio of 5% or higher and lower than 20%)
- b: directly sowed rice plant, effect on crop grade (rice plant): 4 (Herbicidal ratio of 70% or higher and lower than 90%)
- e: wheat, effect on crop grade (wheat): 0 (Herbicidal ratio of 5% or lower (almost no effect))

Structure (SMILES): CON=C(C)CC1CC(O)=C(c2c(C)cc(C)cc2OC)C1=O (centres unmarked) [6-037, 3-hydroxy-2-(2-methoxy-4,6-dimethylphenyl)-5-{2-(methoxyimino)propyl}cyclopent-2-enone]
- Herbicidal effect grade, B: Scirpus juncoides (Scirpus juncoides): 4 (Herbicidal ratio of 70% or higher and lower than 90%)
- herbicidal effect on H (Echinochloa crus-galli var. crus-galli), grade 0-5 [1]: 5 (Herbicidal ratio of 90% or more (almost completely withered))
- herbicidal effect on E, grade 0-5 (Cyperus difformis): 5 (Herbicidal ratio of 90% or more (almost completely withered))
- H: Echinochloa crus-galli var. crus-galli, herbicidal effect grade [2, 5]: 5 (Herbicidal ratio of 90% or more (almost completely withered))
- K: Lolium multiflorum Lam., herbicidal effect grade (Lolium multiflorum Lam. [3]; [5]): 5 (Herbicidal ratio of 90% or more (almost completely withered))
- L: Apera spica-venti, herbicidal effect grade (Apera spica-venti; [5]): 5 (Herbicidal ratio of 90% or more (almost completely withered))
- Q: Galium spurium, herbicidal effect grade (Galium spurium; [5]): 0 (Herbicidal ratio of 5% or lower (almost no effect))
- c: corn, effect on crop grade (corn): 5 (Herbicidal ratio of 90% or more (almost completely withered))
- b: directly sowed rice plant, effect on crop grade (rice): 5 (Herbicidal ratio of 90% or more (almost completely withered))
- G: Setaria viridis, herbicidal effect grade (Setaria viridis): 5 (Herbicidal ratio of 90% or more (almost completely withered))
- I: Avena fatua, herbicidal effect grade (Avena fatua): 5 (Herbicidal ratio of 90% or more (almost completely withered))
- J: Alopecurus myosuroides, herbicidal effect grade (Alopecurus myosuroides): 5 (Herbicidal ratio of 90% or more (almost completely withered))
- K: Lolium multiflorum Lam., herbicidal effect grade (Lolium multiflorum Lam. [4]): 5 (Herbicidal ratio of 90% or more (almost completely withered))
- P: Stellaria media, herbicidal effect grade (Stellaria media): 4 (Herbicidal ratio of 70% or higher and lower than 90%)
- R: Veronica persica, herbicidal effect grade (Veronica persica): 3 (Herbicidal ratio of 40% or higher and lower than 70%)
- b: directly sowed rice plant, effect on crop grade (rice plant): 5 (Herbicidal ratio of 90% or more (almost completely withered))
- e: wheat, effect on crop grade (wheat): 5 (Herbicidal ratio of 90% or more (almost completely withered))

Structure (SMILES): CCOC(=O)C(C(=O)C(C)C)C1CC(O)=C(c2c(C)cc(C)cc2C)C1=O (centres unmarked) [2-009]
- Herbicidal effect grade, B: Scirpus juncoides (Scirpus juncoides): 0 (Herbicidal ratio of 5% or lower (almost no effect))
- herbicidal effect on H (Echinochloa crus-galli var. crus-galli), grade 0-5 [1]: 3 (Herbicidal ratio of 40% or higher and lower than 70%)
- herbicidal effect on E, grade 0-5 (Cyperus difformis): 0 (Herbicidal ratio of 5% or lower (almost no effect))
- H: Echinochloa crus-galli var. crus-galli, herbicidal effect grade [2, 5]: 1 (Herbicidal ratio of 5% or higher and lower than 20%)
- K: Lolium multiflorum Lam., herbicidal effect grade (Lolium multiflorum Lam. [3]; [5]): 0 (Herbicidal ratio of 5% or lower (almost no effect))
- L: Apera spica-venti, herbicidal effect grade (Apera spica-venti; [5]): 0 (Herbicidal ratio of 5% or lower (almost no effect))
- Q: Galium spurium, herbicidal effect grade (Galium spurium; [5]): 0 (Herbicidal ratio of 5% or lower (almost no effect))
- c: corn, effect on crop grade (corn): 0 (Herbicidal ratio of 5% or lower (almost no effect))
- b: directly sowed rice plant, effect on crop grade (rice): 5 (Herbicidal ratio of 90% or more (almost completely withered))
- G: Setaria viridis, herbicidal effect grade (Setaria viridis): 0 (Herbicidal ratio of 5% or lower (almost no effect))
- I: Avena fatua, herbicidal effect grade (Avena fatua): 0 (Herbicidal ratio of 5% or lower (almost no effect))
- J: Alopecurus myosuroides, herbicidal effect grade (Alopecurus myosuroides): 1 (Herbicidal ratio of 5% or higher and lower than 20%)
- K: Lolium multiflorum Lam., herbicidal effect grade (Lolium multiflorum Lam. [4]): 1 (Herbicidal ratio of 5% or higher and lower than 20%)
- P: Stellaria media, herbicidal effect grade (Stellaria media): 0 (Herbicidal ratio of 5% or lower (almost no effect))
- R: Veronica persica, herbicidal effect grade (Veronica persica): 0 (Herbicidal ratio of 5% or lower (almost no effect))
- b: directly sowed rice plant, effect on crop grade (rice plant): 4 (Herbicidal ratio of 70% or higher and lower than 90%)
- e: wheat, effect on crop grade (wheat): 0 (Herbicidal ratio of 5% or lower (almost no effect))

Structure (SMILES): Cc1cc(C)c(C2=C(O)CC(CC(=O)C3CCCCC3)C2=O)c(C)c1 (centres unmarked) [2-030]
- Herbicidal effect grade, B: Scirpus juncoides (Scirpus juncoides): 0 (Herbicidal ratio of 5% or lower (almost no effect))
- herbicidal effect on H (Echinochloa crus-galli var. crus-galli), grade 0-5 [1]: 4 (Herbicidal ratio of 70% or higher and lower than 90%)
- herbicidal effect on E, grade 0-5 (Cyperus difformis): 0 (Herbicidal ratio of 5% or lower (almost no effect))
- H: Echinochloa crus-galli var. crus-galli, herbicidal effect grade [2, 5]: 1 (Herbicidal ratio of 5% or higher and lower than 20%)
- K: Lolium multiflorum Lam., herbicidal effect grade (Lolium multiflorum Lam. [3]; [5]): 4 (Herbicidal ratio of 70% or higher and lower than 90%)
- L: Apera spica-venti, herbicidal effect grade (Apera spica-venti; [5]): 4 (Herbicidal ratio of 70% or higher and lower than 90%)
- Q: Galium spurium, herbicidal effect grade (Galium spurium; [5]): 0 (Herbicidal ratio of 5% or lower (almost no effect))
- c: corn, effect on crop grade (corn): 1 (Herbicidal ratio of 5% or higher and lower than 20%)
- b: directly sowed rice plant, effect on crop grade (rice): 5 (Herbicidal ratio of 90% or more (almost completely withered))
- G: Setaria viridis, herbicidal effect grade (Setaria viridis): 5 (Herbicidal ratio of 90% or more (almost completely withered))
- I: Avena fatua, herbicidal effect grade (Avena fatua): 1 (Herbicidal ratio of 5% or higher and lower than 20%)
- J: Alopecurus myosuroides, herbicidal effect grade (Alopecurus myosuroides): 3 (Herbicidal ratio of 40% or higher and lower than 70%)
- K: Lolium multiflorum Lam., herbicidal effect grade (Lolium multiflorum Lam. [4]): 5 (Herbicidal ratio of 90% or more (almost completely withered))
- P: Stellaria media, herbicidal effect grade (Stellaria media): 0 (Herbicidal ratio of 5% or lower (almost no effect))
- R: Veronica persica, herbicidal effect grade (Veronica persica): 1 (Herbicidal ratio of 5% or higher and lower than 20%)
- b: directly sowed rice plant, effect on crop grade (rice plant): 5 (Herbicidal ratio of 90% or more (almost completely withered))
- e: wheat, effect on crop grade (wheat): 0 (Herbicidal ratio of 5% or lower (almost no effect))
